Source: ChEMBL document CHEMBL1201862, “PubChem BioAssay data set” (2004)
The source made the active and inactive calls. Cut-off read from the data, not from the text of the source, for most assays here: actives have a measured EC50 and inactives only a lower limit.

How the values were obtained:
[1] = biological target: Luciferin 4-monooxygenase (Photinus pyralis, UniProt P08659); test: inhibition of purified Photinus pyralis luciferase – biochemical, luminescence, dose response (AID 1891)
[2] = Luminescence Cell-Based Dose Confirmation HTS to Identify Inhibitors of Platelet Dense Granule Release. [Related pubchem assays: 1663 (Primary HTS), 1678 (Summary of Project)]; type: functional
[3] = biological target: T1, Carboxy-terminal domain RNA polymerase II polypeptide A small phosphatase 1 (Homo sapiens, UniProt Q9GZU7); test: CTDSP1 inhibitors, concentration-response, biochemical, absorbance readout, ultra-high-throughput screen actives (AID 540297); type: functional
T1 sequence (Q9GZU7 whole entry): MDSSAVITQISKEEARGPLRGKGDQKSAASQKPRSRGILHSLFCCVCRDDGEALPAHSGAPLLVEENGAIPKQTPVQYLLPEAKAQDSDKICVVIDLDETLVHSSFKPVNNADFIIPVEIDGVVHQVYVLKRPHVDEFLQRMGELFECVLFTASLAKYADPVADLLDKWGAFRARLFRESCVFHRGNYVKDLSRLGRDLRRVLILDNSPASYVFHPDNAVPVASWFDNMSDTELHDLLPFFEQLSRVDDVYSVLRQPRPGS

[4] = biological target: T2, Corticotropin-releasing factor receptor 2/Corticotropin-releasing factor-binding protein (Homo sapiens, UniProt P24387+Q13324); test: activators of CRF receptor 2 with binding protein – uHTS hits, confirmation (AID 602473); type: functional; details: read-out: EC50_Mean
T2 sequence (Q13324 whole entry): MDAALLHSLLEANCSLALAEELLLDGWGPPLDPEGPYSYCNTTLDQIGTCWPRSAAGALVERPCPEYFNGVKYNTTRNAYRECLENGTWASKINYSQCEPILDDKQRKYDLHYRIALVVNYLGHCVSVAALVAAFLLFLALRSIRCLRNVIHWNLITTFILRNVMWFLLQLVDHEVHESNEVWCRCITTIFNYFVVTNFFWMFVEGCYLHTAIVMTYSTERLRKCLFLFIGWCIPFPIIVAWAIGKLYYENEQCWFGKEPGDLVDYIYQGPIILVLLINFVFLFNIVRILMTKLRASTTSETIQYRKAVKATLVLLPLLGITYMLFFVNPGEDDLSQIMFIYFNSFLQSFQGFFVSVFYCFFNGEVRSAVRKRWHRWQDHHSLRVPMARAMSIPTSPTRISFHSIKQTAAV
T2 sequence (P24387 whole entry): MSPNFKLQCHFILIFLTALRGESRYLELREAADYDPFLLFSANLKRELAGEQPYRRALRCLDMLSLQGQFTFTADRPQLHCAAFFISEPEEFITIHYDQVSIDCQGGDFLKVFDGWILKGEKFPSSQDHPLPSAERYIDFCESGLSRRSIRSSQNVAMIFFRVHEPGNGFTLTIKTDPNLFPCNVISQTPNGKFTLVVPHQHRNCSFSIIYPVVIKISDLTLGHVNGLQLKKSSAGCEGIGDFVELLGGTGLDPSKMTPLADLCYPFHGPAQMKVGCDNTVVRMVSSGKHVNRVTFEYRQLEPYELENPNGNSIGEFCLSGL

[5] = biological target: T2, Corticotropin-releasing factor receptor 2/Corticotropin-releasing factor-binding protein; test: Dose Response confirmation of uHTS hits for small molecule antagonists of the CRF-binding protein and CRF-R2 receptor complex.; type: functional; details: read-out: IC50_Mean
[6] = viability loss in THP-1 monocytes – THP-1 cells, cytotoxicity control for Vif-APOBEC3G degradation inhibitor project, dose response (AID 1117359); type: functional; details: THP-1
[7] = system: Vero; test: viability of Vero cells under compound – cytotoxicity control for flavivirus capping enzyme inhibitors (AID 588742); type: functional; details: Chlorocebus sabaeus
[8] = biological target: Genome polyprotein (dengue virus type 2, UniProt P29990); test: flavivirus cap methylation enzyme inhibition – biochemical, confirmation dose response, primary screen (AID 588689); type: functional
Genome polyprotein, sequence (P29990 2492-3391 limits assumed): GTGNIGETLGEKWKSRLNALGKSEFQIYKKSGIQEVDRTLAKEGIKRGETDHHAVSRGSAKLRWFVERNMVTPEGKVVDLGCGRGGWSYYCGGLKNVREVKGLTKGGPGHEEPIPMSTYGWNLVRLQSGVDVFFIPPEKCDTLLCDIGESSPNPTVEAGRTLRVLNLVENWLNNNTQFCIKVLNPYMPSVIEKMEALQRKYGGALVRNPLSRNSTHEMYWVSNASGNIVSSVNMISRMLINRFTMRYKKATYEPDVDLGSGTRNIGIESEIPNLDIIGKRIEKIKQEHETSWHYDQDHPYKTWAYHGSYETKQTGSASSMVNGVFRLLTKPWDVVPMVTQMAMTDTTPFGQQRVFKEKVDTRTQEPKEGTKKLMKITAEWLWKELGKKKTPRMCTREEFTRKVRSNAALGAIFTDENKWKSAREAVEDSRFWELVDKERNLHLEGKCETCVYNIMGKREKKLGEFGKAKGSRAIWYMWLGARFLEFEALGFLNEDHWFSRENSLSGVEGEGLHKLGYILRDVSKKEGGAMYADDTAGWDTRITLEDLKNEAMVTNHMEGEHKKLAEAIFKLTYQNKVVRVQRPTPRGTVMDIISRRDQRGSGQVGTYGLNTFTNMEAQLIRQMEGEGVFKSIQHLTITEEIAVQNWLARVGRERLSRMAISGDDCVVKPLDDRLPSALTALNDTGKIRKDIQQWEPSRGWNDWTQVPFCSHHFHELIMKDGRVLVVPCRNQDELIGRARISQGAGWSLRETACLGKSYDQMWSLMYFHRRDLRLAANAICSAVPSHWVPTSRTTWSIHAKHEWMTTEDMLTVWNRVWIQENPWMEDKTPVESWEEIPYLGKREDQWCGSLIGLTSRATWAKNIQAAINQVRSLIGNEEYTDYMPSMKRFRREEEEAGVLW

[9] = Luminescence Cell-Based Dose Confirmation HTS to Identify Activators of 5'UTR Stem-Loop Driven Alpha-Synuclein mRNA Translation in H4 Neuroglioblastoma Cells. [Related pubchem assays: 1829 (Project Summary), 1814 (Primary HTS)]; type: functional
[10] = system: H4; test: Luminescence Cell-Based Dose Response HTS to Identify Activators of 5'UTR Stem-Loop Driven Prion Protein mRNA Translation in H4 Neuroglioblastoma Cells. [Related pubchem assays: 1829 (Project Summary), 1814 (Primary HTS)]; type: functional; details: Homo sapiens
[11] = Luminescence Cell-Based Dose Response HTS to Identify Activators of Luciferase Translation or Activity in H4 […] Cells. [Related pubchem assays: 1829 (Project Summary), 1814 (Primary HTS)]; type: functional
[12] = viability of uninfected HEp-2 cells – cell-based, HTS, cytotoxicity control for RSV inhibitor project, dose response (AID 2410); type: functional; details: human respiratory syncytial virus
[13] = biological target: Glyceraldehyde-3-phosphate dehydrogenase (Homo sapiens, UniProt P04406)
Glyceraldehyde-3-phosphate dehydrogenase, sequence (P04406 whole entry): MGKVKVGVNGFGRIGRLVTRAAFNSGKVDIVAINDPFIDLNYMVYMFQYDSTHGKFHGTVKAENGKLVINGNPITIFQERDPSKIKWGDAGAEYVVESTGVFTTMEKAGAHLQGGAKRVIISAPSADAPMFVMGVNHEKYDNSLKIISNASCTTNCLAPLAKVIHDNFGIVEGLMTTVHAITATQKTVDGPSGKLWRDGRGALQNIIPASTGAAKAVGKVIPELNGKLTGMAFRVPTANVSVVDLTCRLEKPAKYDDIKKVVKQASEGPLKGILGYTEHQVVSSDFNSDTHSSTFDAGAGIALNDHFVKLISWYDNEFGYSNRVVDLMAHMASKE

[14] = biological target: T3, Replicative DNA helicase DnaB (Mycobacterium tuberculosis, UniProt P9WMR3); test: DnaB intein splicing inhibitors, dose response, biochemical, cell-free fluorescence (AID 449749); type: functional
T3 sequence (P9WMR3 whole entry): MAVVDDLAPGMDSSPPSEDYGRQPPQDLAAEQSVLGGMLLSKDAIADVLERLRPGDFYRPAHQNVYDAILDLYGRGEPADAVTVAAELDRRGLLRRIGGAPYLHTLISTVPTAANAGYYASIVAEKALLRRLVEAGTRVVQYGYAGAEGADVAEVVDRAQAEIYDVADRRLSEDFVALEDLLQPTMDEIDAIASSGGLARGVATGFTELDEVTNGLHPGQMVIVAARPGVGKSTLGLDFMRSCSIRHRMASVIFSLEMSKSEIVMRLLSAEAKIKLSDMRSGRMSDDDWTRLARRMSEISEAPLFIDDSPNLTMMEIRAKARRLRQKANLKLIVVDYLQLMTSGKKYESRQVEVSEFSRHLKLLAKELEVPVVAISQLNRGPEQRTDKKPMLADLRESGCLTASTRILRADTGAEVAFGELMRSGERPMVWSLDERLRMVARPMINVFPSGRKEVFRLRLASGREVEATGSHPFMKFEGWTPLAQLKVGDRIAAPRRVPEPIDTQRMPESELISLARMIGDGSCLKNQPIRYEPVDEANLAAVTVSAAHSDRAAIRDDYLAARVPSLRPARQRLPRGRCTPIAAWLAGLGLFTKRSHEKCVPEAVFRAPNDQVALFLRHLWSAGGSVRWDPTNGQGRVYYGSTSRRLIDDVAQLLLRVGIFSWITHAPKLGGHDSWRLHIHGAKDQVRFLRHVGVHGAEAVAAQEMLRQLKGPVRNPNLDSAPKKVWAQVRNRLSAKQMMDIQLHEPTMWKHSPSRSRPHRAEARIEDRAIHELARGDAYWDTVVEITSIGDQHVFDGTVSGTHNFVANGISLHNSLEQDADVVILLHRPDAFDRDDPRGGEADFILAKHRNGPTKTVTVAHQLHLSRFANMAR

[15] = biological target: T4, Protein RecA (Mycobacterium tuberculosis, UniProt P9WHJ3); test: Fluorescence Cell-Free Homogeneous Dose Retest to Identify Inhibitors of RecA-Intein Splicing Activity. [Related pubchem assays (depositor defined):AID2097, AID2223, AID489010, AID492950]; type: functional
T4 sequence (P9WHJ3 whole entry): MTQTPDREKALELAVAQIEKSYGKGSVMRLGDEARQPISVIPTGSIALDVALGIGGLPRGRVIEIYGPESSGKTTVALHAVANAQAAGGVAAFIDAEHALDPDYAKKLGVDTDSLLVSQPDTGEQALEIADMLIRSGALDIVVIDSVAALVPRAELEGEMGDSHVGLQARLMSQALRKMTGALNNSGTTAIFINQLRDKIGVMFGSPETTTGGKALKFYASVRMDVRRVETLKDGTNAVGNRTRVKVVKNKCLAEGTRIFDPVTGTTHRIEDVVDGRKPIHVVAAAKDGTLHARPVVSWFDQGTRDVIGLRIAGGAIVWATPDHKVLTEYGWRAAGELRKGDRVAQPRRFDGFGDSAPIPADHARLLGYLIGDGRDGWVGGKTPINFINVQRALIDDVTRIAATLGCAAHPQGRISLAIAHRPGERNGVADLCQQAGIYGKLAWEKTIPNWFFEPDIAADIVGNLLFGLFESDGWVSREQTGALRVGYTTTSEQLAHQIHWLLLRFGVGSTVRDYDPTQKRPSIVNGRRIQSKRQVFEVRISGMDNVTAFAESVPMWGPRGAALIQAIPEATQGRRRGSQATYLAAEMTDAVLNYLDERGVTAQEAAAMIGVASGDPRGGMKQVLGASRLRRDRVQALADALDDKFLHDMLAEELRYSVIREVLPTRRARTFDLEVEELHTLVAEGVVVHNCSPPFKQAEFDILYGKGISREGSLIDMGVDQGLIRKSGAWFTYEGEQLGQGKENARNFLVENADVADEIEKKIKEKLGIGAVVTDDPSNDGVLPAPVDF

[16] = NIH3T3 cell viability loss – ATP luminescence, mouse fibroblasts, counter-screen, dose response (AID 2010); type: functional, cell-based;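 note: cells exposed to compound for about 90 hours before reading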
[17] = Trypanosoma cruzi growth suppression in host cells – NIH3T3 host cells, beta-gal luminescence, confirmation (AID 2044); type: functional, cell-based;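 note: intracellular parasites grown in NIH/3T3 mouse fibroblasts as host cells; luminescent beta-galactosidase reporter signal from transgenic T. cruzi replicating inside host cells; inhibitors lower the luminescence signal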

Luciferin 4-monooxygenase, sequence (P08659 whole entry): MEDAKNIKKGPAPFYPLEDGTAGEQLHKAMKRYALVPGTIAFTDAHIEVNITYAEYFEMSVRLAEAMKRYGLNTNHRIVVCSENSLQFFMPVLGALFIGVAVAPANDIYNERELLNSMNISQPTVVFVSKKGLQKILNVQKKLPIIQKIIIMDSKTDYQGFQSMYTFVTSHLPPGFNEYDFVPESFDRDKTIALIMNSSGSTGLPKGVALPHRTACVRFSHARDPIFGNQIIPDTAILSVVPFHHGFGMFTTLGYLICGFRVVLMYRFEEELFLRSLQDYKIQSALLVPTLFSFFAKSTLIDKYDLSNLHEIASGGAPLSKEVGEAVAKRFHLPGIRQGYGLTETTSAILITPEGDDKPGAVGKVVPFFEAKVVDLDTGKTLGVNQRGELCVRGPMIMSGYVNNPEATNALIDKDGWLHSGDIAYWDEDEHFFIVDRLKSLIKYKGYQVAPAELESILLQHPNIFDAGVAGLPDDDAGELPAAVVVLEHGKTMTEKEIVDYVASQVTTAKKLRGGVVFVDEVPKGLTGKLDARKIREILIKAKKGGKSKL

O=C1c2ccccc2C(Nc2ccc3c(c2)OCO3)N1Cc1ccco1 (centres undefined)
EC50 [1]: > 112 µM (not active)
EC50 [2]: > 112 µM (not active)

O=C(O)c1ccc(CNc2ccccc2C(=O)O)cc1
IC50 [3]: 25.3 µM (active)

COc1ccc(NC(=O)C(Sc2ccccc2)c2ccccc2)c(OC)c1 (centres undefined)
EC50 [4]: > 53 µM (inactive)
IC50 [5]: > 47.1 µM (inactive)

Cc1ccccc1CCNC(=O)c1ccc(Cl)c(S(=O)(=O)N2CC(C)OC(C)C2)c1 (centres undefined)
CC50 [6]: > 40 µM (active)

O=C(c1ccccc1)c1ccc2[nH]c(-c3ccc(NC(=O)c4ccccc4F)cc3)nc2c1
EC50 [1]: > 112 µM (not active)
EC50 [2]: > 112 µM (not active)

COc1ccc(Cl)cc1C=CC=NNC(=O)c1ccncc1
IC50 [3]: 18.9 µM (active)

COC(=O)c1cc(OC)c(OC)cc1NC(=O)C(C)Sc1ccc(C)cc1 (centres undefined)
EC50 [4]: > 53 µM (inactive)
IC50 [5]: > 47.1 µM (inactive)

O=C1C(=Cc2ccncc2)CCCc2ccccc21
EC50 [4]: > 53 µM (inactive)
IC50 [5]: > 47.1 µM (inactive)

Cc1c(Cl)cccc1N1C(=O)c2ccccc2C1=O
EC50 [4]: > 53 µM (inactive)
IC50 [5]: > 47.1 µM (inactive)

C=C(C)CNC(=S)N/N=C(\C)c1ccc(OC)cc1
EC50 [1]: > 112 µM (not active)
EC50 [2]: 30.5 µM (active)

O=C(Nc1cccc(S(=O)(=O)N2CCCCC2)c1)c1ccc(S(=O)(=O)C(F)F)cc1
EC50 [4]: > 53 µM (inactive)
IC50 [5]: > 47.1 µM (inactive)

O=C(CN(CCCN1CCOCC1)C(=O)Cn1nnc(-c2ccc(F)cc2)n1)NC1CCCCC1
EC50 [1]: > 112 µM (not active)
EC50 [2]: > 112 µM (not active)

COC(=O)c1ccc(C)c(NC(=O)CSc2sc3c(O)cc(=O)[nH]c3c2C#N)c1
IC50 [3]: 3.04 µM (active)

Cc1ccc(S(=O)(=O)N2[C@@H](c3ccc(Br)cc3)C(C(=O)O)=C[C@H]2CC2CCCC2)cc1
CC50 [7]: > 40 µM (active)
IC50 [8]: 37 µM (active)

Cc1ccc2[nH]c(/C(C#N)=C/c3ccc(-c4ccccc4C(=O)O)o3)nc2c1
IC50 [3]: 17 µM (active)

CC1CCC(NC(=O)C2CCN(c3c4c(nc5ncnn35)CCC4)CC2)CC1 (centres undefined)
EC50 [9]: 48.6 µM (active)
EC50 [10]: 22.3 µM (active)
EC50 [11]: 64.8 µM (active)

CC1=C(SCc2ccccc2)C(=O)c2ccccc2C1=O
CC50 [7]: > 40 µM (active)
IC50 [8]: 76.8 µM (active)
CC50 [6]: 34.6 µM (active)

C/C(=N\NC(=O)c1ccc(NS(=O)(=O)c2cccs2)cc1)c1ccc2ccccc2c1
CC50 [12]: 16.7 µM (active)
EC50 [1]: > 112 µM (not active)
EC50 [2]: > 112 µM (not active)

N#Cc1c(/N=C/c2ccc(-c3ccccc3C(=O)O)o2)sc2c1CCCC2
IC50 [3]: 9.17 µM (active)

CC1=NN(C(N)=S)C(=O)C1N=Nc1cccc(Cl)c1C (centres undefined)
CC50 [7]: > 40 µM (active)

Cc1ccc(C2CC(c3ccccc3)=NN2C(=O)CSc2nnc(-c3ccc(Cl)cc3)o2)o1 (centres undefined)
EC50 [1]: > 112 µM (not active)
EC50 [2]: > 112 µM (not active)

NS(=O)(=O)c1ccc(NC(=O)COc2ccccc2)cc1
IC50 [13]: > 100 µM (not active)

CC1C/C(=C/c2ccco2)C(=O)/C(=C/c2ccco2)C1 (centres undefined)
CC50 [6]: > 40 µM (active)

CCOc1ccc(/C=C2\SC(=S)N(CCC(=O)Nc3ccccc3C(=O)O)C2=O)cc1
AC50 [14]: 6.1 µM (active)
EC50 [15]: 15.1 µM (active)
IC50 [3]: 4.86 µM (active)
IC50 [8]: 29.3 µM (active)

COc1cccc(NC(=O)COC(=O)c2c(F)cccc2Cl)c1
EC50 [9]: 66.8 µM (active)
EC50 [10]: 20.2 µM (active)
EC50 [11]: 16.1 µM (active)

CC(=O)c1ccc(NC(=O)CCc2nnc3ccc(N4CCC5(CC4)OCCO5)nn23)cc1
EC50 [4]: > 53 µM (inactive)
IC50 [5]: > 47.1 µM (inactive)

O=C(CCN1C(=O)/C(=C/c2ccc3c(c2)OCO3)SC1=S)Nc1cccc(C(=O)O)c1
IC50 [3]: 6.78 µM (active)
IC50 [8]: 47 µM (active)

CCc1ccc(-c2cc(C)no2)cc1S(=O)(=O)N1CCN(c2ccccc2OC)CC1
EC50 [1]: > 112 µM (not active)
EC50 [2]: > 112 µM (not active)

COc1ccccc1NC(=O)CSc1nnc(CNC(=O)c2ccco2)o1
EC50 [4]: > 53 µM (inactive)
IC50 [5]: > 47.1 µM (inactive)

O=C(Nc1cccc(N2CCCC2)c1)c1cccs1
EC50 [16]: > 60 µM (not active)
EC50 [1]: > 112 µM (not active)
EC50 [2]: > 112 µM (not active)
EC50 [17]: 4.67 µM (active)
